# From patent US10202415B1, “Method of synthesizing of 3-oxolupenal nanoparticles” (KING SAUD UNIVERSITY, priority 2017, dated 2019)
# Key:
# Test in all cases: Antimicrobial activity, agar diffusion technique
# Type in all cases: cell-based
# [1] = system: Absidia corymbifera (RCMB 02564)
# [2] = system: Geotricum candidum (RCMB 05097)
# [3] = system: Candida albicans (RCMB 05036)
# [4] = system: Staphylococcus aureus (RCMB 010027)
# [5] = system: Staphylococcus epidermidis (RCMB 010024)
# [6] = system: Streptococcus pyogenes (RCMB 010015)
# [7] = system: Proteous vulgaris (RCMB 010085)
# [8] = system: Klebsiella pneumoniae (RCMB 0010093)
# [9] = system: Salmonella enteritidis(RCMB 010084)
compound,measurement,setting,value
C[C@@H]1[C@H](O)[C@@H](C)/C=C/C=C/C=C/C=C/C=C/C=C/C=C/[C@H](O[C@@H]2O[C@H](C)[C@@H](O)[C@H](N)[C@@H]2O)C[C@@H]2O[C@](O)(C[C@@H](O)C[C@@H](O)[C@H](O)CC[C@@H](O)C[C@@H](O)CC(=O)O[C@H]1C)C[C@H](O)[C@H]2C(=O)O [Amphotericin B],Zone of Inhibition (±S.D.),[1],23.0 ± 0.10
same,Zone of Inhibition (±S.D.),[2],27.0 ± 0.20
same,Zone of Inhibition (±S.D.),[3],25.7 ± 0.10
CC1(C)S[C@@H]2[C@H](NC(=O)[C@H](N)c3ccccc3)C(=O)N2[C@H]1C(=O)O [Ampicillin],Zone of Inhibition (±S.D.),[4],27.3 ± 0.14
same,Zone of Inhibition (±S.D.),[5],25.0 ± 0.18
same,Zone of Inhibition (±S.D.),[6],26.3 ± 0.34
Gentamycin,Zone of Inhibition (±S.D.),[7],23.4 ± 0.30
same,Zone of Inhibition (±S.D.),[8],26.4 ± 0.15
same,Zone of Inhibition (±S.D.),[9],25.2 ± 0.18
